system: HGF-dependent scattering phenotype of HPAF-II cells; test: HPAF scatter assay; assay type: cell-based; details: Homo sapiens, 4 ng/ml HGF, 22 hrs, read-out: inhibitory activity (IC50), scattering phenotype
Description: The ability of compounds to inhibit the HGF-dependent scattering phenotype of HPAF-II cells was measured using a modified version of the assay described by Chan et al. 2008 (Chan et al. J. Biomolec. Screening 2008; 13:847-854). Briefly, HPAF-II cells (ATCC #CRL1997) were plated in 50 uL DMEM (#11995)+10% FBS+P/S at a density of 3,000 cells/well in Costar black clear bottom 384-well plates [Product no. 3712] and incubated at 37° C. overnight. The next day, […] of serially diluted compound in DMSO was added to each well in the cell plate to give a nine-point 1:3 dilution series with final concentrations ranging from 20 uM to 3 nM. Cells were preincubated with compound at 37° C. for one hour. To stimulate the scattering phenotype, 10 uL of 24 ng/ml HGF (R&D Systems 294-HGN) was next added to each well, giving a final concentration of 4 ng/ml HGF. Cells were incubated with both compound and HGF at 37° C. for an additional 22 hrs. Control […] wells without compound treatment and control wells without HGF or compound were included on each plate. Next, to visualize the cells, each plate was washed in PBS 1×, fixed in ice cold methanol for 3 min at RT, washed in PBS 3×, stained with Hoechst (1:2500) in PBS/0.1% Triton for 15 min in the dark, and finally washed in PBS 4× before imaging on an INCell Analyzer 1000 (GE Healthcare). Individual cell by cell SOI internuclear distance information was exported and then processed using a Pipeline Pilot (Accelrys) protocol to calculate the percentage of scattered cells. The percent inhibition of the scattering phenotype was calculated relative to cells without compound treatment, plotted against the log of compound concentration and then fit to a four parameter logistic fit to obtain IC50 values.

| Structure (SMILES) | IC50 |
| --- | --- |
| COCCOc1cnc(-c2cccc(Cc3nn(-c4cnn(C)c4)ccc3=S)c2)nc1 [Example 3, 3-{3-[5-(2-methoxyethoxy)pyrimidin-2-yl]benzyl}-1-(1-methyl-1H-pyrazol-4-yl)pyridazin-4(1H)-thione] | 15 to 550 nM |
| COCCOC(=O)Nc1cccc(Cc2nn(-c3cnn(C)c3)ccc2=S)c1 [Example 8, 2-methoxyethyl (3-{[1-(1-methyl-1H-pyrazol-4-yl)-4-thioxo-1,4-dihydropyridazin-3-yl]methyl}phenyl)carbamate] | 15 to 550 nM |
| CCCn1cnc(-c2cccc(Cc3nn(-c4cnn(CC)c4)ccc3=S)c2)n1 [Example 5, 1-(1-ethyl-1H-pyrazol-4-yl)-3-[3-(1-propyl-1H-1,2,4-triazol-3-yl)benzyl]pyridazin-4(1H)-thione] | 15 to 550 nM |
| Cn1cc(-c2cnc3ccc(OCc4nn(-c5cnn(C)c5)ccc4=S)cc3c2)cn1 [Example 21, 1-(1-methyl-1H-pyrazol-4-yl)-3-({[3-(1-methyl-1H-pyrazol-4-yl)quinolin-6-yl]oxy}methyl)pyridazin-4(1H)-thione] | 15 to 550 nM |
| CCOc1cnc2ccc(OCc3nn(-c4cnn(C)c4)ccc3=S)cc2c1 [Example 19, 3-{[(3-Ethoxyquinolin-6-yl)oxy]methyl}-1-(1-methyl-1H-pyrazol-4-yl)pyridazin-4(1H)-thione] | 15 to 550 nM |

From US20130158041A1, “Tyrosine Kinase Inhibitors” (priority 2010, published 2013)
